Data published in PubChem BioAssay (NCI).
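Exposure lasted 48 hours, with cells grown in 96-well plates and compounds tested at five concentrations. GI50 = concentration required for 50% inhibition of growth. Definition used: TGI = concentration required for complete inhibition of growth.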

Assays:
Assay in all cases: NCI-60 cell line screen, 48 h
[1] = test system: A549 NSCLC
[2] = test system: CCRF-CEM leukemia
[3] = test system: SK-OV-3 ovarian
[4] = test system: HCC-2998 colon
[5] = test system: SF-268 CNS
[6] = test system: HCT-15 colon
[7] = test system: HL-60(TB) leukemia
[8] = test system: U251 CNS
[9] = test system: HOP-92 NSCLC
[10] = test system: OVCAR-8 ovarian
[11] = test system: SNB-19 CNS
[12] = test system: HOP-62 NSCLC
[13] = test system: OVCAR-5 ovarian
[14] = test system: EKVX NSCLC
[15] = test system: COLO 205 colon
[16] = test system: A498 renal
[17] = test system: MDA-MB-435
[18] = test system: KM12 colon
[19] = test system: ACHN renal
[20] = test system: MCF7 breast
[21] = test system: NCI-H226 lung
[22] = test system: OVCAR-3 ovarian
[23] = test system: OVCAR-4 ovarian
[24] = test system: HCT-116 colon
[25] = test system: HS 578T breast
[26] = test system: 786-0 renal
[27] = test system: MOLT-4 leukemia
[28] = test system: TK-10 renal
[29] = test system: UO-31 renal
[30] = test system: HT29 colon
[31] = test system: PC-3 prostate
[32] = test system: DU-145 prostate
[33] = test system: NCI-H522 lung
[34] = test system: BT-549 breast
[35] = test system: T-47D breast
[36] = test system: IGROV1 ovarian
[37] = test system: MALME-3M melanoma
[38] = test system: RXF 393 renal
[39] = test system: SW-620 colon
[40] = test system: RPMI-8226 leukemia
[41] = test system: SK-MEL-2 melanoma
[42] = test system: SF-295 CNS
[43] = test system: NCI/ADR-RES ovarian
[44] = test system: SNB-75 CNS
[45] = test system: MDA-MB-231 breast
[46] = test system: SN12C renal
[47] = test system: SR leukemia
[48] = test system: K-562 leukemia
[49] = test system: CAKI-1 renal
[50] = test system: UACC-62 melanoma
[51] = test system: NCI-H460 lung
[52] = test system: UACC-257 melanoma
[53] = test system: NCI-H23 lung
[54] = test system: LOX IMVI melanoma
[55] = test system: M14 melanoma
[56] = test system: SK-MEL-28 melanoma

## COc1ccc(CNS(=O)(=O)/N=C2\NC(=O)NC2=C(Cl)Cl)cc1
[1]
  GI50: 3.48 µM
  TGI: > 100 µM
[2]
  GI50: 0.364 µM
  TGI: 16.2 µM
[3]
  GI50: 8.22 µM
  TGI: > 100 µM
[4]
  GI50: 3.2 µM
  TGI: 10.4 µM
[5]
  GI50: 0.541 µM
  TGI: > 100 µM
[6]
  GI50: 3.19 µM
  TGI: 11.6 µM
[7]
  GI50: 0.756 µM
  TGI: 5.64 µM
[8]
  GI50: 1.7 µM
  TGI: 14.6 µM
[9]
  GI50: 0.48 µM
  TGI: 10.4 µM
[10]
  GI50: 3.38 µM
  TGI: > 100 µM
[11]
  GI50: 1.14 µM
  TGI: > 100 µM
[12]
  GI50: 0.621 µM
  TGI: > 100 µM
[13]
  GI50: 3.23 µM
  TGI: > 100 µM
[14]
  GI50: 4.39 µM
  TGI: > 100 µM
[15]
  GI50: 2.21 µM
  TGI: 5.1 µM
[16]
  GI50: 1.22 µM
  TGI: 5.39 µM
[17]
  GI50: 1.36 µM
  TGI: 4.33 µM
[18]
  GI50: 0.327 µM
  TGI: > 100 µM
[19]
  GI50: 3.59 µM
  TGI: > 100 µM
[20]
  GI50: 0.348 µM
  TGI: > 100 µM
[21]
  GI50: 2.03 µM
  TGI: 5.51 µM
[22]
  GI50: 1.59 µM
  TGI: 17.5 µM
[23]
  GI50: 4.47 µM
  TGI: > 100 µM
[24]
  GI50: 0.531 µM
  TGI: > 100 µM
[25]
  GI50: 2.09 µM
  TGI: > 100 µM
[26]
  GI50: 1.88 µM
  TGI: > 100 µM
[27]
  GI50: 0.435 µM
  TGI: 59.2 µM
[28]
  GI50: 6.55 µM
  TGI: > 100 µM
[29]
  GI50: 5.13 µM
  TGI: > 100 µM
[30]
  GI50: 1.67 µM
  TGI: > 100 µM
[31]
  GI50: 2.61 µM
  TGI: > 100 µM
[32]
  GI50: 3.22 µM
  TGI: > 100 µM
[33]
  GI50: 2.07 µM
  TGI: 14.2 µM
[34]
  GI50: 0.981 µM
  TGI: 12.2 µM
[35]
  GI50: 2.4 µM
  TGI: > 100 µM
[36]
  GI50: 3.3 µM
  TGI: 22 µM
[37]
  GI50: 5.62 µM
  TGI: 22.7 µM
[38]
  GI50: 1.71 µM
  TGI: 6.79 µM
[39]
  GI50: 2.45 µM
  TGI: 16.6 µM
[40]
  GI50: 0.352 µM
  TGI: 5.21 µM
[41]
  GI50: 6.27 µM
  TGI: 42.8 µM
[42]
  GI50: 2.85 µM
  TGI: > 100 µM
[43]
  GI50: 2.93 µM
  TGI: > 100 µM
[44]
  GI50: 1.34 µM
  TGI: > 100 µM
[45]
  GI50: 1.92 µM
  TGI: 8.31 µM
[46]
  GI50: 0.811 µM
  TGI: > 100 µM
[47]
  GI50: 2.86 µM
  TGI: 22.8 µM
[48]
  GI50: 1.64 µM
  TGI: > 100 µM
[49]
  GI50: 3.05 µM
  TGI: 73.3 µM
[50]
  GI50: 2.89 µM
  TGI: 18.2 µM
[51]
  GI50: 2.82 µM
  TGI: > 100 µM
[52]
  GI50: 10.7 µM
  TGI: 68.6 µM
[53]
  GI50: 3.8 µM
  TGI: 17.7 µM
[54]
  GI50: 0.386 µM
  TGI: 10.8 µM
[55]
  GI50: 3.02 µM
  TGI: > 100 µM
[56]
  GI50: 8.08 µM
  TGI: 22 µM
